Melting point and IC50 data for 26 compounds are collected here from patent US6855843B2, “Inhibitors of α4 mediated cell adhesion” (Tanabe Seiyaku Co., Ltd., priority 1998, dated 2005).

A value given as a limit tells only on which side of the number the result lay.

Data set [1] concerns the target T1, α4β7 (adhesion of RPMI cells to CS-1) (Homo sapiens, UniProt P13612+P26010).
T1 construct: endogenous in cells
T1 sequence (P13612 34-1032): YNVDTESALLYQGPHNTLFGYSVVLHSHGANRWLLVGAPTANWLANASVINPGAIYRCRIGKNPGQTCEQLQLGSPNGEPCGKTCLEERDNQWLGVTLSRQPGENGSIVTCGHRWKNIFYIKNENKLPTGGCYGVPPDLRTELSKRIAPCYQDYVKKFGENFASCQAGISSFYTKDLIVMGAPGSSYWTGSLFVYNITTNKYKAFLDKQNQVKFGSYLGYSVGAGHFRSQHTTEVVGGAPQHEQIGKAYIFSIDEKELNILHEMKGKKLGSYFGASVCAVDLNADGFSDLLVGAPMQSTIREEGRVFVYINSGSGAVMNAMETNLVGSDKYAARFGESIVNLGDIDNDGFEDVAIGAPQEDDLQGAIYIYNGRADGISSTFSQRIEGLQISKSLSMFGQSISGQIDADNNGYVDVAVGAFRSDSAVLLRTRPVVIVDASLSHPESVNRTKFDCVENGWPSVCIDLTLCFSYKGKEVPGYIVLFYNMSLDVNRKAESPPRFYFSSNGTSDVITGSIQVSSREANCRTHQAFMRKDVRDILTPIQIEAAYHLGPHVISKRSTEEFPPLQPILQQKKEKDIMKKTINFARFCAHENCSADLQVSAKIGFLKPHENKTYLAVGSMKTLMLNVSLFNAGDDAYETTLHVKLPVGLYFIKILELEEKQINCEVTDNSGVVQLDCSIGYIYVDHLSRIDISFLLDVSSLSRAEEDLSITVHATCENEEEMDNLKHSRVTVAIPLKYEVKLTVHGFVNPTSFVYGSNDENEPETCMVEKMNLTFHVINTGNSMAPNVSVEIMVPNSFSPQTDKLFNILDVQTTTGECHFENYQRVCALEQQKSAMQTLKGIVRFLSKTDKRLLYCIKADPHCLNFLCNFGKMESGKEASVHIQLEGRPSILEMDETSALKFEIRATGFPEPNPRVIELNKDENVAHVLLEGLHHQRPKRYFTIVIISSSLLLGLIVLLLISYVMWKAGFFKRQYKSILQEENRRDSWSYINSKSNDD
T1 sequence (P26010 20-798): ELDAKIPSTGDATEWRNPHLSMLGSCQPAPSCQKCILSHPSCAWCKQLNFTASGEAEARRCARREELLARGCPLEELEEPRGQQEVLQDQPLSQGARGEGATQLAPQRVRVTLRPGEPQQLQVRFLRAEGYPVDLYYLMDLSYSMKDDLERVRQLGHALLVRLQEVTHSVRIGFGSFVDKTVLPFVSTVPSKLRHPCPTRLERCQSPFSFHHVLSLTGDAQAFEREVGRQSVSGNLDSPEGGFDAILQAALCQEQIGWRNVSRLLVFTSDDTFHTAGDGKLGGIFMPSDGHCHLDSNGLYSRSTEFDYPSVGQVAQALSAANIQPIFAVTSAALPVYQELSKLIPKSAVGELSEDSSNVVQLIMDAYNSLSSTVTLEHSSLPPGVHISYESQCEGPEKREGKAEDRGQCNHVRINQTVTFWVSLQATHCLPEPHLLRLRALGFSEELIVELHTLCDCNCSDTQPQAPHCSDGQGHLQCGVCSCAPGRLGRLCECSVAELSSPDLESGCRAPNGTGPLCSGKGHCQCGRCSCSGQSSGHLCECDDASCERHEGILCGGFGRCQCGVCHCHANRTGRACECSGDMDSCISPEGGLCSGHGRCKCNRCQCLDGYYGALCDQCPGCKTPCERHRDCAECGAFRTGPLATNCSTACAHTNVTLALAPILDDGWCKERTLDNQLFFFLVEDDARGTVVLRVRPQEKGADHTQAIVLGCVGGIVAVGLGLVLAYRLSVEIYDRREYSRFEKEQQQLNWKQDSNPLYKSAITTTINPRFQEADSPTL
Briefly: RPMI-CS-1 cell adhesion assay. The note with it: adhesion of RPMI B-cell line (expresses α4β7) to CS-1 peptide coated microwells; read-out: RPMI-CS-1 IC50 value range. The data set is classed as cell-based.

Take `CC(=O)c1ccc(-c2ccc(C[C@H](NC(=O)c3c(Cl)cccc3Cl)C(=O)O)cc2)s1` [Example 215, N-(2,6-Dichlorobenzoyl)-4-(5-acetyl-2-thienyl)-L-phenylalanine]: the melting point fell in the range of 194 to 195 °C. The IC50 in data set [1] was 300 to 1000 nM.

Consider `CCC(O)c1cc(C[C@H](NC(=O)c2c(Cl)cccc2Cl)C(=O)O)ccc1-c1ccccc1OC` (stereo partly shown) [Example 341], for which the melting point was 117 to 119 °C. Further, the IC50 in data set [1] was under 300 nM.

`COc1ccc(C(N)=O)c(OC)c1-c1ccc(C[C@H](NC(=O)c2c(Cl)cc(NC(N)=O)cc2Cl)C(=O)O)cc1` [Example 205, N-(4-Ureido-2,6-dichlorobenzoyl)-4-(3-carbamoyl-2,6-dimethoxyphenyl)-L-phenylalanine] returned a melting point of 217 to 219 °C. Besides, the IC50 in data set [1] was under 300 nM.

In turn, `CCOC(=O)Nc1cc(Cl)c(C(=O)N[C@@H](Cc2ccc(-c3c(OC)cccc3OC)cc2)C(=O)O)c(Cl)c1` [Example 200] displayed a melting point of 185 to 187 °C. In data set [1], the IC50 is under 300 nM.

As for `COc1ccc(F)c(OC)c1-c1ccc(C[C@H](NC(=O)c2c(Cl)cccc2Cl)C(=O)O)cc1` [Example 153A, N-(2,6-Dichlorobenzoyl)-4-(2,6-dimethoxy-3-fluorophenyl)-L-phenylalanine], the melting point was 228 to 229 °C. Further, in data set [1], the IC50 was under 300 nM.

`N#CCOc1cccc(OCC#N)c1-c1ccc(C[C@H](NC(=O)c2c(Cl)cccc2Cl)C(=O)O)cc1` [Example 231] gave a melting point of 175 to 176 °C. The IC50 in data set [1] was under 300 nM.

Turning to `C=CCNc1cc(OC)c(-c2ccc(C[C@H](NC(=O)c3c(Cl)cccc3Cl)C(=O)O)cc2)c(OC)c1` [Example 156, N-(2,6-Dichlorobenzoyl)-4-(4-allylamino-2,6-dimethoxyphenyl)-L-phenylalanine], the melting point was 262 to 263 °C (dec.). Further, the IC50 in data set [1] is under 300 nM.

For `CCOC(=O)[C@H](Cc1ccc(-c2c(OC)cc(CN3CCCCC3)cc2OC)cc1)NC(=O)c1c(F)cccc1F` [Example 354], the melting point came to 150 °C. Moreover, the IC50 in data set [1] is under 300 nM.

In turn, `COc1cccc(OC)c1-c1ccc(C[C@H](NC(=O)c2c(Cl)cc(NC(=O)Nc3ccccc3C)cc2Cl)C(=O)O)cc1` [Example 202] came in with a melting point of 182 to 184 °C. The IC50 in data set [1] is under 300 nM.

In turn, `CS(=O)(=O)Nc1ccc(C(=O)N[C@@H](Cc2ccc(-c3ccccc3C(F)(F)F)cc2)C(=O)O)c(Cl)c1` [Example 335, N-[2-Chloro-4-(methansulfonylamino)benzoyl]-4-[2-(trifluoromethyl)phenyl]-L-phenylalanine] displayed a melting point of 114 °C. In addition, in data set [1], the IC50 lay in the range of 300 to 1000 nM.

On to `CCc1cc(C[C@H](NC(=O)c2c(Cl)cccc2Cl)C(=O)O)ccc1-c1ccccc1OC` [Example 296, N-(2,6-Dichlorobenzoyl)-3-ethyl-4-(2-methoxyphenyl)-L-phenylalanine], for which the melting point fell in the range of 105 to 107 °C. Also, the IC50 in data set [1] was under 300 nM.

`CNC(=O)Nc1cc(OC)c(-c2ccc(C[C@H](NC(=O)c3c(Cl)cccc3Cl)C(=O)O)cc2)c(OC)c1` [Example 160, N-(2,6-Dichlorobenzoyl)-4-[4-(3-methylureido)-2,6-dimethoxyphenyl]-L-phenylalanine] showed a melting point of 206 to 207 °C. Also, the IC50 in data set [1] is under 300 nM.

For the compound `COc1cccc(OC)c1-c1ccc(C[C@H](NC(=O)c2c(Cl)cc(NC(N)=O)cc2Cl)C(=O)O)cc1` [Example 204], the melting point is 220 to 221 °C. The IC50 in data set [1] was under 300 nM.

In turn, `COc1ccc2c(c1-c1ccc(C[C@H](NC(=O)c3c(Cl)cccc3Cl)C(=O)O)cc1)OCCO2` [Example 241, N-(2,6-Dichlorobenzoyl)-4-(2,3-ethylenedioxy-6-methoxyphenyl)-L-phenylalanine] yielded a melting point of 218 °C. Further, in data set [1], the IC50 is under 300 nM.

In turn, `COc1cccc(OC)c1-c1ccc(C[C@H](NC(=O)c2c(Cl)cc(F)cc2Cl)C(=O)O)cc1` [Example 320, N-(2,6-Dichloro-4-fluorobenzoyl)-4-(2,6-dimethoxyphenyl)-L-phenylalanine] had a melting point of 206 to 207 °C. For the same compound, the IC50 in data set [1] was under 300 nM.

As for `COc1cc(C(=O)O)cc(OC)c1-c1ccc(C[C@H](NC(=O)c2c(Cl)cccc2Cl)C(=O)O)cc1` [Example 172, N-(2,6-Dichlorobenzoyl)-4-(4-carboxy-2,6-dimethoxyphenyl)-L-phenylalanine], the melting point lay within 277 to 278 °C. In addition, in data set [1], the IC50 was under 300 nM.

`COc1cc(C(=O)NCCCO)cc(OC)c1-c1ccc(C[C@H](NC(=O)c2c(Cl)cccc2Cl)C(=O)O)cc1` [Example 169]: the melting point lay within 222 to 223 °C. In data set [1], the IC50 is under 300 nM.

Compound `COc1cccc(OC)c1-c1ccc(C[C@H](NC(=O)c2c(Cl)cc(-c3ccc[nH]3)cc2Cl)C(=O)O)cc1` [Example 303, N-[4-(2-Pyrrolyl)-2,6-dichlorobenzoyl]-4-(2,6-dimethoxyphenyl)-L-phenylalanine] registered a melting point of 250 °C. Also, the IC50 in data set [1] is under 300 nM.

For the compound `COc1ccc(O)c(OC)c1-c1ccc(C[C@H](NC(=O)c2c(Cl)cccc2Cl)C(=O)O)cc1` [Example 175, N-(2,6-Dichlorobenzoyl)-4-(2,6-dimethoxy-3-hydroxyphenyl)-L-phenylalanine], the melting point lay within 164 to 165 °C. In addition, the IC50 in data set [1] is under 300 nM.

Regarding `COc1cccc(OCCO)c1-c1ccc(C[C@H](NC(=O)c2c(Cl)cccc2Cl)C(=O)O)cc1` [Example 227, N-(2,6-Dichlorobenzoyl)-4-[6-methoxy-2-(2-hydroxyethoxy)phenyl]-L-phenylalanine], the melting point was in the range of 158 to 159 °C. For the same compound, in data set [1], the IC50 is under 300 nM.

`COc1ccccc1-c1ccc(C[C@H](NC(=O)c2c(Cl)cccc2Cl)C(=O)O)cc1Cl` [Example 336, N-(2,6-Dichlorobenzoyl)-3-chloro-4-(2-methoxyphenyl)-L-phenylalanine]: the melting point is 131 °C. Also, in data set [1], the IC50 was under 300 nM.

In turn, `COc1ccc(NC(C)=O)c(OC)c1-c1ccc(C[C@H](NC(=O)c2c(Cl)cccc2Cl)C(=O)O)cc1` [Example 325, N-(2,6-Dichlorobenzoyl)-4-[2,6-dimethoxy-3-(acetylamino)phenyl]-L-phenylalanine] had a melting point of 244 to 245 °C. In data set [1], the IC50 is under 300 nM.

Consider `COc1cc(NC(C)=O)cc(OC)c1-c1ccc(C[C@H](NC(=O)c2c(Cl)cccc2Cl)C(=O)O)cc1` [Example 159, N-(2,6-Dichlorobenzoyl)-4-(4-acetylamino-2,6-dimethoxyphenyl)-L-phenylalanine], for which the melting point lay within 243 to 244 °C. In addition, the IC50 in data set [1] is under 300 nM.

For `COCOc1ccc(OC)c(-c2ccc(C[C@H](NC(=O)c3c(Cl)cccc3Cl)C(=O)O)cc2)c1OC` [Example 174, N-(2,6-Dichlorobenzoyl)-4-(2,6-dimethoxy-3-methoxymethoxyphenyl)-L-phenylalanine], the melting point was in the range of 156 to 157 °C. In data set [1], the 50% inhibitory concentration (IC50) was under 300 nM.

Take `O=C(N[C@@H](Cc1ccc(-c2c(C(F)(F)F)cccc2C(F)(F)F)cc1)C(=O)O)c1c(Cl)cccc1Cl` [Example 146]: the melting point lay in the range of 259 to 260 °C. For the same compound, in data set [1], the IC50 lay within 300 to 1000 nM.

As for `O=C(N[C@@H](Cc1ccc(-c2cccc3c2OCC3)cc1)C(=O)O)c1c(Cl)cccc1Cl` [Example 327], the melting point fell in the range of 215 to 216 °C. The IC50 in data set [1] is under 300 nM.

The term melting point denotes the temperature of the solid-liquid transition. What is called IC50 is the concentration that gives 50% inhibition.
